# In US20240189235A1, “CATIONIC LIPIDS AND USES THEREOF” (MELLO BIOTECH TAIWAN CO., LTD., priority 2022, published 2024):
# System: Cy5-mir302a-siRNA
# Test: Encapsulation efficiency of LNPs for small RNAs (RiboGreen fluorescence)
# Assay type: physicochemical
# Conditions: Table 1 in words
# Experimental: To produce the present composition, the present cationic lipids (compound 6 or 22), cholesterol, DEG-PEG 2000, and distearoylphosphatidylcholine (DSPC) were fully mixed in ethanol at a molar ratio of 50:38.5:1.5:10, and the total volume was brought to 500 μL, thereby producing a liquid formulation of lipid nanoparticles (LNPs). As for control group, D-lin-MC3-DMA (MC30), an ionizable amino lipid that conventionally used in LNPs preparation, was mixed with cholesterol, DEG-PEG 2000, and DSPC at the same molar ratio as the present LNPs. […]
# The encapsulation ratio of liposomes for encapsulating miRNAs or siRNAs was determined by fluorescence reader (Infinite F200 Pro) with the aid of RNA quantification kit containing a fluorescent dye (RiboGreen). […] The cationic lipid-RNA complexes (typically with a total volume of 50 μL for each sample well) were then mixed with the reagent from the RNA quantification kit in each well. […] The amount of miRNAs or siRNAs were quantified by interpolating their […] at 535 nm to that of the standard curve, and the encapsulation efficiency (EE) was calculated by the following formula: […]
# where Wt is the total amount of miRNAs or siRNAs released in the LNPs lysis suspension, and Wi is the total quantity of miRNAs or siRNAs added initially during preparation. […]
row,SMILES,Liposome formation and siRNA encapsulation
1,"CCCCC/C=C\C/C=C\CCCCCCCC(=O)NCC(=O)OC(COC(=O)CN)COC(=O)CN [Compound 6, 2-(2-((9Z,12Z)-octadeca-9,12-dienamido)acetoxy)propane-1,3-diyl bis(2-aminoacetate)]",successfully formed liposomes and encapsulated siRNAs therein
2,"CCCCCC/C=C\CCCCCCCC(=O)NCC(=O)OCC(COC(=O)CN)OC(=O)CNC(=O)CCCCCCC/C=C\CCCCCC (centres unmarked) [Compound 22, (Z)-3-(2-aminoacetoxy)propane-1,2-diyl bis(2-((Z)-hexadec-9-enamido)acetate)]",successfully formed liposomes and encapsulated siRNAs therein
